# Patent US12220412B2, “Methods for administering corticosteroids” (Sparrow Pharmaceuticals, Inc., priority 2018, dated 2025)
# Key:
# [1] = Population pharmacokinetics model for Compound A from two clinical trials; type: in vivo, human
# Protocol: On the basis of data from two Compound A clinical trials, a population pharmacokinetics model (FIG. 4) was developed using a maximal dose of 20 mg. The selected model to describe the pharmacokinetics of Compound A was a two-compartment disposition model, with a 4-compartment transit absorption, saturable binding from the central compartment, and first-order elimination. Inter-individual variability was implemented on clearance (CL), volume of distribution (V2), absorption rate constant (kA), second order association constant (Kon), first order dissociation constant (Koff), and total number of saturable binding receptors (R). This model had satisfactory goodness-of-fit and acceptable relative standard errors.
# CL, kA, R, Kon, and Koff are defined above. BAV is relative bioavailability, kTR is a transit rate constant (equal to kA), k23 and k32 are transfer rate constants between central and peripheral compartments.
# The covariate effect was moderate (25% increase of BAV in 88-year old subjects compared to 36-year old subjects).
# [2] = test system: Adults with painful diabetic peripheral neuropathy; test: 6-week randomized trial in adults with painful diabetic peripheral neuropathy (pain relief, glycemic control, lipids, blood pressure, weight); type: in vivo, human; set-up: Weight / HbA1c (%) / Plasma glucose / Urine glucose (% positive) / Cholesterol / Triglycerides / Systolic BP (mm Hg) / Diastolic BP (mm Hg): reference not given here
# Protocol: Adults with painful diabetic peripheral neuropathy were randomized to treatment with SPI-62, placebo for SPI-62, or pregabalin (positive control) for 6 weeks. […] The trial was terminated. Descriptive analysis on parameters of glycemic control, blood lipids, blood pressure, and weight was conducted. […] As this was an exploratory analysis, statistical hypothesis tests were not performed.
# [3] = test system: magnesium-deficient mice; test: Corticosterone (CS)-induced tail biting behavior in magnesium-deficient mice given N-methyl-D-aspartate; type: in vivo; details: N-methyl-D-aspartate and corticosterone, single doses of 0.3 to 3 mg/kg
# Description: (§1) (a) no CS; (b)-(f) CS; dosage of Compound A (mg/kg): (b) 0; (c) 0.01; (d) 0.03; (e) 1; (f) 3.
# Increased tail biting, an anxiety behavior, was induced in magnesium-deficient mice with administration of N-methyl-D-aspartate and corticosterone (CS). Tail biting was not induced by N-methyl-D-aspartate without co-administration of CS (FIG. 9(a)).
# [4] = test system: mice; test: Corticosterone-induced deficit of Y-maze exploration (alternation rate); type: in vivo; details: single doses of 0.3 to 3 mg/kg
# Description: as §1
# Mice typically prefer to explore the novel arm of a Y-maze, a behavior considered indicative of short-term memory. Corticosterone (CS) decreases the percentage of times mice enter the novel arm of a Y maze, and so is considered to have a negative cognitive effect.
# [5] = target: HSD-1 (Homo sapiens, UniProt P28845); test: Urinary (tetrahydrocortisol+allotetrahydrocortisol)/tetrahydrocortisone ratio as indicator of HSD-1 activity in clinical trial subjects; type: in vivo; set-up: from tissue; host or cells: in vivo, human subjects; details: for mean HSD-1 ratio (significantly decreased HSD-1 activity): both days 1 and 18
# Sequence of HSD-1 (P28845 whole entry): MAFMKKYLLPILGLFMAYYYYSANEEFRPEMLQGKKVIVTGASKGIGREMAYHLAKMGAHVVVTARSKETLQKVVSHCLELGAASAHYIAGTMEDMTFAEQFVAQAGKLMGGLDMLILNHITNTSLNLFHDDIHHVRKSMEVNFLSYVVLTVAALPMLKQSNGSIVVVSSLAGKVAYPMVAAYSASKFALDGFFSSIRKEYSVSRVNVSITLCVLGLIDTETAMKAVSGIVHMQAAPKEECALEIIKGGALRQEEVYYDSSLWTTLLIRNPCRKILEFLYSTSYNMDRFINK
# Protocol: Following a minimum of a 10-hour fast, healthy adult racially diverse male and female subjects were administered Compound A (ASP3662) or placebo for Compound A with 240 mL of room temperature water. Subjects continued to fast from any food and drinks (water was allowed as desired except for 1 hour before and 1 hour after study drug administration) until 4 hours after study drug administration. Urine samples were collected for the measurement of cortisol, cortisone, tetrahydrocortisol (5α, 5β) and tetrahydrocortisone. The cumulative amount of each entity excreted in the urine was calculated for each subject from time zero to 24 hours after dosing (Ae24), from 24 hours after dosing to 48 hours after dosing (Ae48), and Aelast.
# The ratio of 5α-tetrahydrocortisol+5β-tetrahydrocortisol to urinary tetrahydrocortisone was used as an indicator of HSD-1 activity. Compound A decreased the 5α-tetrahydrocortisol+5β-tetrahydrocortisol to urinary tetrahydrocortisone ratio with increasing dose compared to placebo, resulting in approximately 80% inhibition at 6 mg. […]
# [6] = adults with painful diabetic peripheral neuropathy, 6 weeks treatment, descriptive analysis
# [7] = elderly non-Japanese subjects, 20 mg, Day 1 single dose, 24 h urine
# [8] = elderly non-Japanese subjects, 20 mg, Day 18 after daily doses Days 5 through 18, 24 h urine
# [9] = healthy adult Japanese subjects, 10 mg, Day 1 single dose, 24 h urine
# [10] = healthy adult Japanese subjects, 10 mg, Day 18 after daily doses Days 5 through 18, 24 h urine
# [11] = healthy adult Japanese subjects, 20 mg, Day 1 single dose, 24 h urine
# [12] = healthy adult Japanese subjects, 20 mg, Day 18 after daily doses Days 5 through 18, 24 h urine
# [13] = healthy adult Japanese subjects, 50 mg, Day 1 single dose, 24 h urine
# [14] = healthy adult Japanese subjects, 50 mg, Day 18 after daily doses Days 5 through 18, 24 h urine
smiles,measurement,setting,value
Cn1c(-c2ccc(C(N)=O)cc2F)nnc1C(C)(C)Oc1c(F)cc(Cl)cc1F [Compound A],"increase of BAV (relative bioavailability), covariate effect of age",[1]; 88-year old subjects compared to 36-year old subjects,25%
same,"Covariate: age on BAV (relative bioavailability), estimate",[1]; population PK model,0.200
same,"Koff (first order dissociation constant, saturable binding), estimate",[1]; population PK model,5.83e-05 s⁻¹
same,"Kon (second order association constant, saturable binding), estimate",[1]; population PK model,0.0682 µg⁻¹ h⁻¹
same,"R (total number of saturable binding receptors), estimate",[1]; population PK model,3170 nmol
same,"V2 (volume of distribution), estimate",[1]; population PK model,90.2 L/70 kg
same,amount of Compound A corresponding to estimated total number of saturable binding receptors,[1]; population PK model,1.347 mg
same,"k23 (transfer rate constant between central and peripheral compartments), estimate",[1]; population PK model,0.00341 h^−1/(70 kg)^−0.25
same,"k32 (transfer rate constant between central and peripheral compartments), estimate",[1]; population PK model,0.0255 h^−1/(70 kg)^−0.25
same,"kA (absorption rate constant), estimate",[1]; population PK model,5.38 h⁻¹
same,"CL (clearance), estimate","[1]; population PK model, doses up to 20 mg",7.24 L/h/(70 kg)^0.75
same,Cholesterol,[2]; [6],-0.48 ± 0.12 mM
same,Diastolic BP (mm Hg),[2]; [6],0 ± 2 mm Hg
same,HbA1c (%),[2]; [6],−0.31 ± 0.11%
same,Plasma glucose,[2]; [6],0.084 ± 0.38 mM
same,Systolic BP (mm Hg),[2]; [6],−1 ± 3 mm Hg
same,Triglycerides,[2]; [6],-0.11 ± 0.09 mM
same,Urine glucose (% positive),[2]; [6],−2.5 ± 3.0 % positive
same,Weight,[2]; [6],-0.3 ± 0.3 kg
same,"trends compared to placebo on HbA1c, plasma glucose, urine glucose, cholesterol and triglycerides (not on systolic or diastolic blood pressure or weight)","[2]; exploratory descriptive analysis, no hypothesis tests",Favorable numeric trends
same,pain relief compared to the placebo group,[2]; interim review after 150 subjects completed treatment,not any better
same,CS-dependent increase of tail biting behavior,[3],fully reversed
same,Y-maze novel arm exploration behavior (alternation rate) after corticosterone,[4],restored a more normal behavior pattern
same,number of doses to achieve full HSD-1 inhibition,[5]; dose level 0.4 mg,9 to 11 doses
same,number of doses to achieve full HSD-1 inhibition,[5]; dose level 0.7 mg,5 to 6 doses
same,number of doses to achieve full HSD-1 inhibition,[5]; dose level 2 mg,2 doses
same,"HSD-1 ratio, Day 1 Mean",[5]; [7],0.17
same,"HSD-1 ratio, Day 1 Median",[5]; [7],0.16
same,"HSD-1 ratio, Day 18 Mean",[5]; [8],0.11
same,"HSD-1 ratio, Day 18 Median",[5]; [8],0.11
same,mean HSD-1 ratio (significantly decreased HSD-1 activity),"[5]; elderly non-Japanese subjects, 20 mg",approximately 0.1
same,"HSD-1 ratio (tetrahydrocortisol [5α + 5β]/tetrahydrocortisone), Day 1 Median",[5]; [9],0.19
same,"HSD-1 ratio (tetrahydrocortisol [5α + 5β]/tetrahydrocortisone), Day 1 mean",[5]; [9],0.18
same,"HSD-1 ratio (tetrahydrocortisol [5α + 5β]/tetrahydrocortisone), Day 18 Mean",[5]; [10],0.13
same,"HSD-1 ratio (tetrahydrocortisol [5α + 5β]/tetrahydrocortisone), Day 18 Median",[5]; [10],0.12
same,"HSD-1 ratio (tetrahydrocortisol [5α + 5β]/tetrahydrocortisone), Day 1 Median",[5]; [11],0.14
same,"HSD-1 ratio (tetrahydrocortisol [5α + 5β]/tetrahydrocortisone), Day 1 mean",[5]; [11],0.14
same,"HSD-1 ratio (tetrahydrocortisol [5α + 5β]/tetrahydrocortisone), Day 18 Mean",[5]; [12],0.09
same,"HSD-1 ratio (tetrahydrocortisol [5α + 5β]/tetrahydrocortisone), Day 18 Median",[5]; [12],0.10
same,"HSD-1 ratio (tetrahydrocortisol [5α + 5β]/tetrahydrocortisone), Day 1 Median",[5]; [13],0.14
same,"HSD-1 ratio (tetrahydrocortisol [5α + 5β]/tetrahydrocortisone), Day 1 mean",[5]; [13],0.14
same,"HSD-1 ratio (tetrahydrocortisol [5α + 5β]/tetrahydrocortisone), Day 18 Mean",[5]; [14],0.10
same,"HSD-1 ratio (tetrahydrocortisol [5α + 5β]/tetrahydrocortisone), Day 18 Median",[5]; [14],0.09
same,mean HSD-1 ratio (significantly decreased HSD-1 activity),"[5]; healthy adult Japanese subjects, doses of 10 mg, 20 mg and 50 mg",0.1 to 0.2
